According to patent US20230320984A1, “TOFACITINIB-CONTAINING ANHYDROUS ELASTOMER-BASED GEL FORMULATIONS” (Vyne Therapeutics Inc., priority 2022, published 2023):
Where two headings read alike, the source gives them in different places.

Columns and labels:
[1] = Visual solubility evaluation of Fingolimod free base; format: physicochemical; details: for solubility: organic solvent or mixture, thermodynamic from solid, visual, RT
Protocol: A visual solubility evaluation of Fingolimod free base was performed.

[2] = system: Human skin from cosmetic reduction surgery; test: Skin penetration (IVPT), vertical diffusion cell (Method A); format: in vitro ADME
Protocol: The skin is dosed with approx. 6 mg of formulation to achieve a dose of ˜ 10 mg/cm2. Receptor solution is collected at pre-determined intervals over the course of 24 hours and analyzed using a liquid chromatography with tandem mass spectrometry (LC-MS/MS) analytical method.
Following 24 hours, the residual formulation is removed from the surface of the skin. The skin surface is tape-stripped up to five times to remove residual formulation and the top of the skin surface layers (Stratum Corneum). The epidermis is then heat-separated from the dermis. The active agent is extracted from the skin layers and the amount of active agent delivered to the epidermis and dermis is then determined by LC-MS/MS.

[3] = human, in vivo
Protocol: Values below the limit of concentration are omitted from determination of geometric mean and geometric % CV.
Samples designated for analysis of fingolimod and fingolimod phosphate are collected and processed for shipment to bioanalytical laboratories. Frozen samples are thawed at room temperature and homogenized by vortexing. 10 μL of ISTD working solution (WS ISTD2 50 ng/mL in methanol/water, 50/50, V/V) is addeded to Eppendorf tubes each containing 200 sample (exception blank samples for which 10 μL of methanol/water, 50/50, V/V is added). Samples are vortexed for 5 sec and 800 μL of acetonitrile is added to each sample and vortexed for additional 10 sec. Next samples are centrifuged for 10 min at 14000 rpm at 5° C. and 900 μL is transferred to hemolyse tube. The samples are evaporated at approximately 40° C. […]
Whole blood is analyzed for concentration of fingolimod and fingolimod phosphate using a validated analytical procedure for the simultaneous quantitation of both analytes. […] After, the analyte is separated on a Kinetex Biphenyl column (50×3.0 mm, 2.6 μm) and analyzed using electrospray ionization (ESI) tandem mass spectrometry (MS/MS) in the multiple reaction monitoring mode (MRM). […]

[4] = cited from earlier work
[5] = Human equivalent dose, safety factor and predicted exposure from the minipig NOAEL
[6] = Toxicokinetics / pK in minipigs (Method T); details: day 1; tofacitinib 0.6% fingolimod 0.005% gel group
Protocol: (§1) The animals are not fasted prior to blood collection, with the exception of the intervals that coincide with fasting for clinical pathology collections.
(§2) If necessary, the samples are frozen on dry ice prior to being placed in the freezer. […] Samples are stored at the bioanalytical laboratories in a freezer set to maintain −80±10° C. until analysis.
(§3) Samples designated for analysis of fingolimod and fingolimod phosphate are mixed gently, lysed with an equal volume of deionized water, vortexed for approximately 1 minute, divided into two approximately equal aliquots, transferred to uniquely labeled polypropylene tubes and frozen in a freezer set to maintain −70° C. If necessary, the samples are frozen on dry ice prior to being placed in the freezer. The samples for fingolimod analysis are shipped with a temperature monitoring device to bioanalytical laboratories. Samples are stored at the bioanalytical laboratories in a freezer set to maintain −75±15° C. until analysis.
(§4) Whole blood is analyzed for concentration of fingolimod and fingolimod phosphate using a validated analytical procedure for the simultaneous quantitation of both analytes.
(§5) TK samples collected on Days 49 and 56 from recovery animals in Groups 1, 2, 3, 5, and 6 are also analyzed. […]

[7] = Chemical stability of formulations (Method H); format: physicochemical; details: gel with Tofacitinib Citrate 1.0% and Fingolimod HCl 0.01% (Table 38)
Protocol: Where another active agent such as fingolimod is present in the formulations the samples are analyzed for that active agent and its degradation products by HPLC. […] The gradient elution is employed.

[8] = system: Reconstructed Human Epidermis (RHE) exposed to Th2 cytokines IL-4, IL-13, IL-25; test: Reconstructed Human Epidermis Th2 model for AD efficacy (Method S); format: cell-based; details: 48 h
Protocol: Reconstructed Human Epidermis (RHE) tissues are produced and grown by StratiCELL. To generate the morphological and functional aspects of AD, RHE samples are exposed to Th2 cytokines IL-4, IL-13, IL-25. Th-2 cytokines are applied for 48 h in the culture medium of epidermis. Test formulations are applied simultaneously with the cytokines on the stratum corneum of the epidermis during the same 48 h. The tissue morphology is assessed by histology and hemalum/eosin (H/E) staining—quantification of a fluorescent dye (biotin) diffusion through the epidermis in order to evaluate the barrier function.

[9] = system: S1P receptors (S1P1 and S1P3-5); details: cited from earlier work
[10] = minipig, in vivo
Protocol: as §1, §2, §3, §4, §5

[11] = estimated from Table 43a, epidermis assumed 80 μm, skin 500 μm, density 1.0 g/cm^3
[12] = gel with Fingolimod HCl […] (Table 42), Mean (n = 5)
[13] = gel with Tofacitinib Citrate 1.0% and Fingolimod HCl 0.01% (Table 43a), Mean (n = 5)

Question: For CCCCCCCCc1ccc(CCC(N)(CO)CO)cc1 [fingolimod, 2-amino-2-[2-(4-octylphenyl)ethyl]propane-1,3-diol], which “visual solubility at RT” value ([1]; alcohols) is on record?
Answer: The value was “very good solubility”.

Question: And the “visual solubility at RT” value ([1]; most of organic solvents tested)?
Answer: Its value is “good solubility”.

Question: What about the solubility ([1]; Diisopropyloxide) of the same molecule?
Answer: The solubility was under 1.1 mg/mL.

Question: And the solubility ([1]; Ethanol)?
Answer: Its solubility is over 20 mg/mL.

Question: What about the solubility ([1]; Methanol) of the same molecule?
Answer: The solubility was over 20 mg/mL.

Question: What about the solubility ([1]; Toluene) of the same molecule?
Answer: Its solubility is under 1.7 mg/mL.

Question: What about the “visual solubility at RT” value ([1]; water, toluene, diisopropyloxide and methyl ethyl ketone) of the same molecule?
Answer: Its value is “very low soluble”.

Question: What about the “Dermis concentration, μg/g Based on the Mean (n = 5)” value [2, 11] of the same molecule?
Answer: Its value is 0.6 µg/g.

Question: What about the “Epidermis concentration, μg/g Based on the Mean (n = 5)” value [2, 11] of the same molecule?
Answer: The value was 3.4 µg/g.

Question: What about the “estimated concentration of active in dermis” value ([2]; formulation with 1.0% tofacitinib citrate and […] fingolimod hydrochloride) of the same molecule?
Answer: The value was 0.6 µg/mL.

Question: What about the “estimated concentration of active in epidermis” value ([2]; formulation with 1.0% tofacitinib citrate and […] fingolimod hydrochloride, epidermis assumed 80 μm) of the same molecule?
Answer: The value was 3.4 µg/g.

Question: And the “Amount of Fingolimod recovered, % applied dose, Dermis” value [2, 12]?
Answer: The value was 2.59%.

Question: And the “Amount of Fingolimod recovered, % applied dose, Epidermis” value [2, 12]?
Answer: The value was 1.98%.

Question: And the “Amount of Fingolimod recovered, % applied dose, Receptor fluid” value [2, 12]?
Answer: The value was “ND (not detected (below LOQ of 0.25 ng/mL))”.

Question: And the “Amount of Fingolimod recovered, ng, Dermis” value [2, 12]?
Answer: The value was 49.16 ^ ng.

Question: What about the “Amount of Fingolimod recovered, ng, Receptor fluid” value [2, 12] of the same molecule?
Answer: Its value is “ND (not detected (below LOQ of 0.25 ng/mL))”.

Question: What about the “Amount of Fingolimod recovered, % applied dose, Dermis” value [2, 13] of the same molecule?
Answer: Its value is 1.44%.

Question: What about the “Amount of Fingolimod recovered, % applied dose, Epidermis” value [2, 13] of the same molecule?
Answer: The value was 1.59%.

Question: What about the “Amount of Fingolimod recovered, % applied dose, Receptor fluid” value [2, 13] of the same molecule?
Answer: The value was “ND (not detected (below LOQ of 0.25 ng/ml))”.

Question: And the “Amount of Fingolimod recovered, ng, Dermis” value [2, 13]?
Answer: Its value is 14.82 ng.

Question: What about the “Amount of Fingolimod recovered, ng, Epidermis” value [2, 13] of the same molecule?
Answer: The value was 16.21 ng.

Question: And the “Amount of Fingolimod recovered, ng, Receptor fluid” value [2, 13]?
Answer: Its value is “ND (not detected (below LOQ of 0.25 ng/ml))”.

Question: What about the “whole blood concentrations (all below the assay LLOQ)” value [3] of the same molecule?
Answer: Its value is under 0.08 ng/mL.

Question: What about the solubility ([4]; organic solvents, such as ethanol, DMSO and dimethyl formamide) of the same molecule?
Answer: The solubility was “soluble”.

Question: What about the solubility ([4]; water) of the same molecule?
Answer: The solubility was “sparingly soluble”.

Question: What about the “human equivalent dose (HED)” value ([5]; from minipig NOAEL, minipig 10 kg, human 60 kg) of the same molecule?
Answer: The value was 2.21 mg/kg/day.

Question: What about the “safety factor over the NOAEL of the 6-week minipig dermal toxicity study” value ([5]; maximum daily application of 2 g dual active gel) of the same molecule?
Answer: The value was 669 fold.

Question: What about the quantifiability in blood [6] of the same molecule?
Answer: Its quantifiability in blood is “not quantifiable”.

Question: What about the “Assay of Fingolimod, % LC” value ([7]; 2 months at 40° C.) of the same molecule?
Answer: Its value is 97.2 % LC.

Question: And the “Assay of Fingolimod, % LC” value ([7]; 2 months at 50° C.)?
Answer: The value was 95.0 % LC.

Question: And the “Assay of Fingolimod, % LC” value ([7]; 3 weeks at 5° C.)?
Answer: The value was 100.3 % LC.

Question: And the “Assay of Fingolimod, % LC” value ([7]; 3 weeks at 40° C.)?
Answer: Its value is 99.9 % LC.

Question: What about the “Assay of Fingolimod, % LC” value ([7]; 3 weeks at 50° C.) of the same molecule?
Answer: Its value is 94.1 % LC.

Question: What about the “Assay of Fingolimod, % LC” value ([7]; Initial) of the same molecule?
Answer: Its value is 99.9 % LC.

Question: And the “barrier function (biotin immunofluorescence)” value ([8]; 0.001% w/w and 0.01% w/w)?
Answer: Its value is “reduced the Th2-induced barrier alteration”.

Question: What about the “tissue morphology (histology)” value ([8]; 0.001% w/w and 0.01% w/w) of the same molecule?
Answer: The value was “reduced the Th2-induced barrier alteration”.

Question: And the “barrier function (biotin immunofluorescence)” value ([8]; 0.1% and 1%)?
Answer: Its value is “Increased barrier alteration”.

Question: What about the “tissue morphology (histology)” value ([8]; 0.1% w/w and 1% w/w) of the same molecule?
Answer: Its value is “increased fragilization was observed with junction/adhesion loss and disorganization of cell layers”.

Question: With fingolimod-phosphate as the molecule, how does the “whole blood concentrations (all below the assay LLOQ)” value [3] read?
Answer: Its value is under 0.08 ng/mL.

Question: And the “affinity for four of the five S1P receptors” value [9]?
Answer: The value was 0.3 to 3.1 nM.

Question: And the quantifiability in blood [10]?
Answer: The quantifiability in blood was “only quantifiable in the 0.2% fingolimod gel group”.
